Laboratory results as given in patent publication US9687432B2, “Antimicrobial bispyridine amine compositions and uses” (LONZA INC., priority 2012, dated 2017).
Structures can show the parent of a compound that is named as a salt. Where two headings read alike, the source gives them in different places.

Legend:
[1] = system: Bacillus licheniformis (14580); assay: MIC test against skin microorganisms; assay type: cell-based; details: 48 hrs at 36° C., two different sets
Protocol: (§1) MICs for the organisms were determined using a standard 96-well microtiter plate assay in Trypic Soy Broth (TSB). […] Bacteria were grown in Tryptic Soy Broth or Brain Heart Infusion (E. hirae) for 24 hrs and were adjusted to one million cells per milliliter in same type of broth. Following incubation (48 hrs at 36° C.), the lowest concentration of test compound inhibiting growth was recorded as the Minimum Inhibitory Concentration (MIC). The actives were serially diluted and tested at final concentrations ranging from 156.3-0.61 ppm. MIC was run for two different sets.
(§2) Bacteria were grown overnight in Tryptic Soy Brother (TSB) or Brain Heart Infusion (BHI) and were adjusted to approximately 1×10^6 colony forming units per ml (cfu/ml) and used to inoculate the wells. Final bacterial concentration in the test wells was 5×10^5 cfu/ml. For Corynebacterium spp, TSB was used for the first set and BHI for the second set. Inoculated microtiter plates were incubated at 36° C. for 48 hours.
(§3) The lowest concentration of test compound inhibiting growth was recorded as the minimum inhibitory concentration.

[2] = system: Corynebacterium minutissimum (23348); assay: MIC test against skin microorganisms; assay type: cell-based; details: 48 hrs at 36° C., TSB first set, BHI second set
Protocol: as §1, §2, §3

[3] = system: Corynebacterium xerosis (373); assay: MIC test against skin microorganisms; assay type: cell-based; details: 48 hrs at 36° C., TSB first set, BHI second set
Protocol: as §1, §2, §3

[4] = system: Staphylococcus epidermidis (12228); assay: MIC test against skin microorganisms; assay type: cell-based; details: 48 hrs at 36° C., two different sets
Protocol: as §1, §2, §3

[5] = system: Staphylococcus haemolyticus (29970); assay: MIC test against skin microorganisms; assay type: cell-based; details: 48 hrs at 36° C., two different sets
Protocol: as §1, §2, §3

[6] = system: mixed pool of bacteria (Staphylococcus epidermis, Corynebacterium minutissimum, Staphylococcus haemolyticus, Corynebacterium xerosis, Micrococcus luteus) on …; assay: Control of growth of skin microorganisms on pig skin; assay type: cell-based, skin bacteria on pig skin; details: 200 ppm in ethanol, 100 μl on pig skin, mixed bacterial pool, 35° C., 8 hour time period
Protocol: To further investigate the potential of the bispyridine amine compounds of the present invention for use as antimicrobial active ingredients in personal care products and cosmetics, the efficacy of octenidine distearate in controlling growth of skin microorganisms compared to Cosmocil® S was evaluated using different skin mimics. Testing was performed using pig skin. Although alternatives, such as VITRO-SKIN®, offered a less variable test matrix, it was decided that testing on pig skin was a better model for this application, as the pig skin allowed for actual growth of bacteria on the surface, not merely the survival of bacteria on the surface, providing more representative user skin conditions. The typical skin microorganisms Staphylococcus epidermis (ATCC 12228), Corynebacterium minutissimum (ATCC 23348), Staphylococcus haemolyticus (ATCC 29970), Corynebacterium xerosis (ATCC 373), and Micrococcus luteus (ATCC 4698), were grown in Tryptic Soy Broth (TSB) at 35-37° C. for approximately 24 hours. Each bacterial suspension was diluted 1:50 in TSB and then inoculum was prepared by mixing equal volume of each bacterial suspension. The final inoculum was plated in TSA to get an accurate count and used as a mixed pool of bacteria. […] Plates were incubated at 35-37° C. for 48 hours before the colonies were counted, and the mean values calculated.

[7] = system: EpiDerm™ Skin Model (EPI-200); assay: MatTek EpiDerm MTT Viability Assay (dermal irritancy); assay type: cell-based, human
Protocol: The MatTek EpiDerm™ MTT Viability Assay (MatTek Corp.) was utilized to determine the dermal irritancy and toxicology of octenidine distearate and octenidine dihydrochloride. The assay was performed using the EpiDerm™ Skin Model (EPI-200) as well as the Methyl thiazole tetrazolium (MT) Kit (MTT-100). The EpiDerm™ Skin Model closely parallels human skin, thus providing a useful in vitro method to assess dermal irritancy and toxicology.
Negative controls (treated with tissue culture water) were tested at 4 hours only. Following treatment, the viability of the tissues was determined using MTT uptake and reduction. The absorbance of each sample was measured at 540 nm using a reference wavelength of 690 nm. The viability was then expressed as a percent of Negative Control or Vehicle Control values. The mean percent viability for each time point was used to calculate and ET50, which represents the time at which the EpiDerm™ tissue viability was reduced 50%, compared to Negative Control or Vehicle Control tissues. The ET50 scores were converted to an irritancy classification.
MTT Reduction: 704 μl of mineral oil were heated at 70 C for 10 minutes.
Before use, tissues were incubated (37° C.±1 C, 5%±1% CO2) with assay medium (MatTek) for a one-hour equilibration. Equilibration medium was replaced with fresh medium before dosing.
The test articles were diluted as described in the sample preparation above. 100 μl of the test article dilution were mixed with 1 ml of MTT solution (1 mg/ml MTT diluted in Dulbecco's Modified Eagle's Medium (DMEM). A negative control (100 μl of tissue culture water) and a vehicle control (100 μl of mineral oil) were tested concurrently. The solutions were incubated at room temperature in the dark for 60 minutes. After incubation, the solutions were visually inspected for purple coloration, which is a positive indication that the test article reduced MTT. Since tissue viability is based on MTT reduction, direct reduction by a test article can exaggerate viability, making a test article seem less irritating that it really is.
100 μl of the test article dilutions were applied to the top of each EpiDerm™ tissue. The test articles remained in contact with the EpiDerm™ tissue for 1, 4 and 24 hours. Vehicle controls (TCH20 and mineral oil) for the test articles were tested at 4 hours. A positive control (1% Triton® X-100) was tested at 4 and 9 hours. […]
At the end of the selected exposure periods, each EpiDerm™ tissue was rinsed with phosphate buffered saline (PBS) and transferred to a 24-well plate containing 300 μl of MTT solution (1 mg/ml MTT in DMEM). […] An aliquot of the extracted MTT formazan was measured at 540 nm using a plate reader (pQuant Plate Reader, Bio-Tek Instruments, Winooski, Vt.), subtracting the absorbance at a reference wavelength of 690 nm.

MIC (ppm) [1] | MIC (ppm) [2] | MIC (ppm) [3] [ppm] | MIC (ppm) [4] | SMILES | MIC (ppm) [5] | efficacy in controlling growth of skin microorganisms (CFU/cm^2 of skin, FIG. 1) [6] | ET50 [7] [h] | ET50 (hrs) [7] | Irritancy Classification [7] | ET50 ([7]; human, 1.25 % w/v) [h]
9.76-19.53 ppm | 2.44-39.06 ppm | 39.06 | 4.88-9.76 ppm | CCCCCCCCCCCCCCCCCC(=O)O.CCCCCCCCCCCCCCCCCC(=O)O.CCCCCCCCN=c1ccn(CCCCCCCCCCn2ccc(=NCCCCCCCC)cc2)cc1 [Octenidine distearate, octenidine distearate] | 4.88-9.76 ppm | equally as effective as Cosmocil® S | >24.0 | greater than 24.0 hrs | Non-Irritating | –
– | – | – | – | CCCCCCCCN=c1ccn(CCCCCCCCCCn2ccc(=NCCCCCCCC)cc2)cc1 [Octenidine HCl, Octenidine dihydrochloride] | – | – | – | – | – | 1.1
